PubChem BioAssay AID248 (DTP/NCI, 2004)
Several values for one entry are separate records, joined by “and”; a condition that tells them apart may be missing. Equal entries are not always repeated. Inconclusive results and toxic doses are left out. No stated cut-off is given here; in the data, active means T/C of 150% or more; inactive means T/C below 125%.

System: L1210 leukemia ip in BDF1 mice, survival T/C
Experiment: NCI In Vivo Anticancer Drug Screen. Data for tumor model L1210 Leukemia (intraperitoneal) in B6D2F1 (BDF1) mice
Conditions: endpoint: mean survival time, higher = longer survival
In short: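 Ratio derived from survival: compound-dosed mice over vehicle-dosed mice, all bearing a transplantable tumor.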

[1] = dose: 5.0 mg/kg/injection, schedule: Q01DX001 (ip), vehicle: saline
[2] = dose: 10.0 mg/kg/injection, schedule: Q01DX001 (ip), vehicle: saline
[3] = dose: 20.0 mg/kg/injection, schedule: Q01DX001 (ip), vehicle: saline
[4] = dose: 100.0 mg/kg/injection, schedule: Q01DX001 (ip), vehicle: saline
[5] = dose: 200.0 mg/kg/injection, schedule: Q01DX001 (ip), vehicle: saline
[6] = dose: 400.0 mg/kg/injection, schedule: Q01DX001 (ip), vehicle: saline
[7] = dose: 100.0 mg/kg/injection, schedule: Q04DX003 (ip), vehicle: Klucel (hydroxypropylcellulose) (HPC)
[8] = dose: 400.0 mg/kg/injection, schedule: Q04DX003 (ip), vehicle: Klucel (hydroxypropylcellulose) (HPC)
[9] = dose: 50.0 mg/kg/injection, schedule: Q01DX001 (ip), vehicle: saline
[10] = dose: 100.0 mg/kg/injection, schedule: Q04DX003 (ip), vehicle: saline with Tween-80
[11] = dose: 200.0 mg/kg/injection, schedule: Q04DX003 (ip), vehicle: saline with Tween-80
[12] = dose: 400.0 mg/kg/injection, schedule: Q04DX003 (ip), vehicle: saline with Tween-80
[13] = dose: 200.0 mg/kg/injection, schedule: Q04DX003 (ip), vehicle: Klucel (hydroxypropylcellulose) (HPC)
[14] = dose: 100.0 mg/kg/injection, schedule: Q04DX003 (ip), vehicle: saline
[15] = dose: 200.0 mg/kg/injection, schedule: Q04DX003 (ip), vehicle: saline
[16] = dose: 400.0 mg/kg/injection, schedule: Q04DX003 (ip), vehicle: saline

Measured: T/C

COc1ccc2cc3[n+](cc2c1OC)CCc1cc2c(cc1-3)OCO2
inactive: dose: 3.12 mg/kg/injection, schedule: Q01DX009 (ip), vehicle: Klucel (hydroxypropylcellulose) (HPC) 110 % of control | [1] 103 % of control | dose: 6.25 mg/kg/injection, schedule: Q01DX009 (ip), vehicle: Klucel (hydroxypropylcellulose) (HPC) 117 % of control | [2] 109 % of control | dose: 12.0 mg/kg/injection, schedule: Q01DX Z (ip), vehicle: saline 114 % of control | dose: 12.5 mg/kg/injection, schedule: Q01DX009 (ip), vehicle: Klucel (hydroxypropylcellulose) (HPC) 101 % of control and 106 % of control | [3] 109 % of control

COc1ccccc1C(=O)P(=O)(OC)OC
inactive: [4] 104 % of control | [5] 93 % of control | [6] 95 % of control

COc1cccc(C(=O)O)c1OS(=O)(=O)c1ccccc1
inactive: dose: 100.0 mg/kg/injection, schedule: Q01DX009 (ip), vehicle: Klucel (hydroxypropylcellulose) (HPC) 98 % of control | [7] 91 % of control | dose: 200.0 mg/kg/injection, schedule: Q01DX009 (ip), vehicle: Klucel (hydroxypropylcellulose) (HPC) 95 % of control | dose: 400.0 mg/kg/injection, schedule: Q01DX009 (ip), vehicle: Klucel (hydroxypropylcellulose) (HPC) 93 % of control | [8] 94 % of control

N#Cc1nccnc1C#N
inactive: dose: 25.0 mg/kg/injection, schedule: Q04DX002 (ip), vehicle: DMSO 96 % of control | dose: 50.0 mg/kg/injection, schedule: Q04DX002 (ip), vehicle: DMSO 100 % of control | dose: 100.0 mg/kg/injection, schedule: Q04DX002 (ip), vehicle: DMSO 100 % of control

CN(C)Cc1c(Cl)cccc1C(O)c1ccccc1 (stereo unspecified)
inactive: [9] 96 % of control | [4] 106 % of control | [5] 106 % of control | [6] 95 % of control

Nc1c(N=Nc2cccc([N+](=O)[O-])c2)c(S(=O)(=O)O)cc2cc(S(=O)(=O)O)c(N=Nc3ccc(-c4ccc(N=Nc5cc(S(=O)(=O)O)c6ccccc6c5O)cc4)cc3)c(O)c12
inactive: dose: 50.0 mg/kg/injection, schedule: Q01DX010 (ip), vehicle: saline 94 % of control | dose: 100.0 mg/kg/injection, schedule: Q01DX010 (ip), vehicle: saline 100 % of control | dose: 200.0 mg/kg/injection, schedule: Q01DX010 (ip), vehicle: saline 92 % of control

COC1C(O)C(C)OC(O[C@@H]2C[C@H]3CC[C@@H]4[C@H](CC[C@]5(C)[C@@H](C6=CC(=O)OC6)CC[C@]45O)[C@@]3(C)[C@H](O)C2)C1O (stereo partly specified)
inactive: dose: 0.63 mg/kg/injection, schedule: Q01DX001 (ip), vehicle: saline 103 % of control | dose: 1.25 mg/kg/injection, schedule: Q01DX001 (ip), vehicle: saline 101 % of control | dose: 2.5 mg/kg/injection, schedule: Q01DX001 (ip), vehicle: saline 97 % of control | [1] 94 % of control | [2] 103 % of control | [3] 106 % of control | dose: 40.0 mg/kg/injection, schedule: Q01DX001 (ip), vehicle: saline 111 % of control | dose: 80.0 mg/kg/injection, schedule: Q01DX001 (ip), vehicle: saline 101 % of control

CCCCC(=O)N/N=C/c1ccc(Cl)cc1Cl
inactive: [4] 91 % of control

O=C1c2cc(Br)ccc2-c2ccc(Br)cc21
inactive: [9] 90 % of control | [4] 100 % of control | [5] 90 % of control

CCOc1ccc(C(=O)O)cc1OCC
inactive: [10] 110 % of control | [11] 98 % of control | [12] 96 % of control

CCOC(=O)c1[nH]cnc1/N=N/N(C)C1CCCCC1
inactive: dose: 85.0 mg/kg/injection, schedule: Q01DX015 (ip), vehicle: carboxymethylcellulose (CMC) 103 % of control | dose: 100.0 mg/kg/injection, schedule: Q01DX001 (ip), vehicle: carboxymethylcellulose (CMC) 98 % of control | dose: 114.0 mg/kg/injection, schedule: Q01DX015 (ip), vehicle: carboxymethylcellulose (CMC) 107 % of control | dose: 200.0 mg/kg/injection, schedule: Q01DX001 (ip), vehicle: carboxymethylcellulose (CMC) 109 % of control | dose: 400.0 mg/kg/injection, schedule: Q01DX001 (ip), vehicle: carboxymethylcellulose (CMC) 102 % of control

CC(=O)CC(=O)c1cc(C(C)=O)c(O)c(C(C)=O)c1
inactive: dose: 50.0 mg/kg/injection, schedule: Q04DX003 (ip), vehicle: Klucel (hydroxypropylcellulose) (HPC) 101 % of control | [7] 108 % of control | [13] 103 % of control | [8] 101 % of control

CC1=N/C(=C/c2ccccc2)C(=O)O1
inactive: [10] 97 % of control | [11] 92 % of control | [12] 98 % of control

O=C(OCCO)c1ccccc1
inactive: dose: 100.0 mg/kg/injection, schedule: Q01DX009 (ip), vehicle: saline with Tween-80 97 % of control | [14] 106 % of control | dose: 200.0 mg/kg/injection, schedule: Q01DX009 (ip), vehicle: saline with Tween-80 97 % of control | [15] 95 % of control | dose: 400.0 mg/kg/injection, schedule: Q01DX009 (ip), vehicle: saline with Tween-80 95 % of control | [16] 97 % of control

CC1(C)N=C(N)N=C(N)N1c1cccc(C(=O)c2ccccc2)c1
inactive: dose: 25.0 mg/kg/injection, schedule: Q01DX001 (ip), vehicle: saline with Tween-80 98 % of control | dose: 50.0 mg/kg/injection, schedule: Q01DX001 (ip), vehicle: saline with Tween-80 90 % of control

CC#C[P+](Cc1ccccc1)(c1ccccc1)c1ccccc1
inactive: dose: 9.5 mg/kg/injection, schedule: Q01DX001 (ip), vehicle: saline 108 % of control | dose: 19.0 mg/kg/injection, schedule: Q01DX001 (ip), vehicle: saline 117 % of control

NC(N)=NCCCC(NC(=O)c1ccccc1)C(=O)O (stereo unspecified)
inactive: dose: 100.0 mg/kg/injection, schedule: Q01DX001 (ip), vehicle: other 104 % of control | dose: 100.0 mg/kg/injection, schedule: Q01DX009 (ip), vehicle: other 101 % of control | dose: 100.0 mg/kg/injection, schedule: Q04DX003 (ip), vehicle: other 93 % of control | dose: 200.0 mg/kg/injection, schedule: Q01DX001 (ip), vehicle: other 100 % of control | dose: 200.0 mg/kg/injection, schedule: Q01DX009 (ip), vehicle: other 107 % of control | dose: 200.0 mg/kg/injection, schedule: Q04DX003 (ip), vehicle: other 90 % of control | dose: 400.0 mg/kg/injection, schedule: Q01DX001 (ip), vehicle: other 100 % of control | dose: 400.0 mg/kg/injection, schedule: Q01DX009 (ip), vehicle: other 100 % of control | dose: 400.0 mg/kg/injection, schedule: Q04DX003 (ip), vehicle: other 96 % of control

OC1CCC(O)CC1 (stereo unspecified)
inactive: [14] 100 % of control | [15] 100 % of control | [16] 115 % of control

NCCCNc1ccccc1
inactive: dose: 100.0 mg/kg/injection, schedule: Q01DX009 (ip), vehicle: saline 92 % of control | dose: 200.0 mg/kg/injection, schedule: Q01DX009 (ip), vehicle: saline 98 % of control

CC(C(O)c1ccc(F)cc1)C(O)(C(F)(F)F)C(F)(F)F (stereo unspecified)
inactive: [10] 97 % of control | [11] 98 % of control | [12] 86 % of control

Cc1cccc(-c2nc3cc(Cl)ccc3c(=O)o2)c1
inactive: [7] 97 % of control | [13] 90 % of control

CCOC(=O)C1CCCCC1
inactive: [14] 102 % of control | [15] 98 % of control | [16] 91 % of control

O=C(/C=C/c1cccc([N+](=O)[O-])c1)Nc1cccnc1
inactive: dose: 100.0 mg/kg/injection, schedule: Q01DX009 (ip), vehicle: gum acacia 90 % of control | dose: 200.0 mg/kg/injection, schedule: Q01DX009 (ip), vehicle: gum acacia 96 % of control | dose: 400.0 mg/kg/injection, schedule: Q01DX009 (ip), vehicle: gum acacia 94 % of control

COc1cc(CCl)c(CCl)c(OC)c1OC
inactive: dose: 75.0 mg/kg/injection, schedule: Q01DX001 (ip), vehicle: carboxymethylcellulose (CMC) 96 % of control | dose: 150.0 mg/kg/injection, schedule: Q01DX001 (ip), vehicle: carboxymethylcellulose (CMC) 95 % of control | dose: 300.0 mg/kg/injection, schedule: Q01DX001 (ip), vehicle: carboxymethylcellulose (CMC) 93 % of control

O=C(O)C(Br)C(Br)c1ccccc1 (stereo unspecified)
inactive: [10] 101 % of control | [11] 106 % of control | [12] 96 % of control

Cc1cccc(C(C)(C)C)c1O
inactive: [10] 102 % of control | [11] 91 % of control | [12] 94 % of control
